Experiments:
[1] = test system: CCRF-CEM; test: NCI in vitro cytotoxicity, CCRF-CEM; settings: Homo sapiens
Excerpt: (§1) For these compounds results are expressed as growth inhibition (GI50) values as per NCI protocol.

[2] = test system: COLO 205; test: NCI in vitro cytotoxicity, COLO 205; settings: Homo sapiens
Excerpt: as §1

[3] = test system: SW-620; test: NCI in vitro cytotoxicity, SW-620; settings: Homo sapiens
Excerpt: as §1

[4] = test system: HL-60 (TB); test: NCI in vitro cytotoxicity, HL-60 (TB); format: cell-based; settings: Homo sapiens, Leukemia
[5] = test system: RXF 393; test: NCI in vitro cytotoxicity, RXF 393; settings: Homo sapiens
Excerpt: as §1

[6] = test system: OVCAR-3; test: NCI in vitro cytotoxicity, OVCAR-3; settings: Homo sapiens
Excerpt: as §1

[7] = test system: M14; test: NCI in vitro cytotoxicity, M14; settings: Homo sapiens
Excerpt: as §1

[8] = test system: T-47D; test: NCI in vitro cytotoxicity, T-47D; settings: Homo sapiens, T47D
Excerpt: as §1

[9] = test system: CAKI-1; test: NCI in vitro cytotoxicity, CAKI-1; settings: Homo sapiens
Excerpt: as §1

[10] = test system: NCI-H226; test: NCI in vitro cytotoxicity, NCI-H226; settings: Homo sapiens
Excerpt: as §1

[11] = test system: SK-MEL-5; test: NCI in vitro cytotoxicity, SK-MEL-5; settings: Homo sapiens
Excerpt: as §1

[12] = test system: HOP-92; test: NCI in vitro cytotoxicity, HOP-92; settings: Homo sapiens
Excerpt: as §1

[13] = test system: HCT-116; test: NCI in vitro cytotoxicity, HCT-116; settings: Homo sapiens
Excerpt: as §1

[14] = test system: SF-268; test: NCI in vitro cytotoxicity, SF-268; settings: Homo sapiens
Excerpt: as §1

[15] = test system: UACC-62; test: NCI in vitro cytotoxicity, UACC-62; settings: Homo sapiens
Excerpt: as §1

[16] = test system: MALME-3M; test: NCI in vitro cytotoxicity, MALME-3M; settings: Homo sapiens
Excerpt: as §1

[17] = test system: MDA-MB-231/ATCC; test: NCI in vitro cytotoxicity, MDA-MB-231/ATCC; settings: Homo sapiens
Excerpt: as §1

[18] = test system: MDA-MB-435; test: NCI in vitro cytotoxicity, MDA-MB-435; settings: Homo sapiens
Excerpt: as §1

[19] = test system: A498; test: NCI in vitro cytotoxicity, A498; settings: Homo sapiens
Excerpt: as §1

[20] = test system: IGROV 1; test: NCI in vitro cytotoxicity, IGROV 1; settings: Homo sapiens
Excerpt: as §1

[21] = test system: 786-0; test: NCI in vitro cytotoxicity, 786-0; settings: Homo sapiens
Excerpt: as §1

[22] = test system: NCI-H322M; test: NCI in vitro cytotoxicity, NCI-H322M; settings: Homo sapiens
Excerpt: as §1

[23] = test system: HOP-62; test: NCI in vitro cytotoxicity, HOP-62; settings: Homo sapiens
Excerpt: as §1

[24] = test system: NCI-H522; test: NCI in vitro cytotoxicity, NCI-H522; settings: Homo sapiens
Excerpt: as §1

[25] = test system: MCF-7; test: NCI in vitro cytotoxicity, MCF-7; settings: Homo sapiens, MCF7
Excerpt: as §1

[26] = test system: EKVX; test: NCI in vitro cytotoxicity, EKVX; settings: Homo sapiens
Excerpt: as §1

[27] = test system: BT-549 (breast cancer cell line); test: NCI in vitro cytotoxicity, BT-549; settings: Homo sapiens
Excerpt: as §1

[28] = test system: K-562; test: NCI in vitro cytotoxicity, K-562; settings: Homo sapiens, K562
Excerpt: as §1

SMILES	GI50 [1] [µM]	GI50 [3] [µM]	GI50 [4] [µM]	GI50 [5] [µM]	GI50 [6] [µM]	GI50 [7] [µM]	GI50 [8] [µM]	GI50 [9] [µM]	GI50 [10] [µM]	GI50 [11] [µM]	GI50 [12] [µM]	GI50 [13] [µM]	GI50 [14] [µM]	GI50 [15] [µM]	GI50 [16] [µM]	GI50 [17] [µM]	GI50 [18] [µM]	GI50 [19] [µM]	GI50 [20] [µM]	GI50 [23] [µM]	further results
COc1cc(-c2nc(-c3ccc(-c4nc5cc(F)ccc5[nH]4)cc3)no2)cc(OC)c1OC [2i, 3-(4-(5-Fluoro-1H-benzo[d]imidazol-2-yl)phenyl)-5-(3,4,5-trimethoxyphenyl)-1,2,4-oxadiazole]	2.97	3.61	2.24	1.9	2.56	3.23	2.72	2.76	2.72	2.22	1.76	2.13	3.99	2.35	2.32	2.39	2.73	4.19	3.81	3.21	GI50 [2]: 4.77 µM; GI50 [21]: 3.61 µM; GI50 [22]: 1.3 µM; GI50 [24]: 3.04 µM; GI50 [25]: 2.88 µM; GI50 [26]: 3.45 µM
COc1ccc2[nH]c(-c3ccc(-c4noc(-c5cc(OC)c(OC)c(OC)c5)n4)cc3)nc2c1 [5i, 3-(4-(5-Methoxy-1H-benzo[d]imidazol-2-yl)phenyl)-5-(3,4,5-trimethoxyphenyl)-1,2,4-oxadiazole]	2.2	5.89	2.02	5.24	42.5	5.47	14.7	23.4	2.27	3.25	14.3	1.9	7.13	14	1.67	2.65	4.27	28.5	26.3	4.44	GI50 [27]: 0.52 µM; GI50 [28]: 1.2 µM; GI50 [24]: 6.89 µM; GI50 [25]: 1.08 µM; GI50 [26]: 26.2 µM

From patent US9522907B2, “Anticancer agent and process for the preparation thereof” (COUNCIL OF SCIENTIFIC & INDUSTRIAL RESEARCH, priority 2014, dated 2016)
